Legend:
Galectin-1 = Galectin-1 (Homo sapiens, UniProt P09382); experiment: Evaluation of Kd Values
Method: (§1) The affinity of Example 1-14 for galectins were determined by a fluorescence anisotropy assay where the compound was used as an inhibitor of the interaction between galectin and a fluorescein tagged saccharide probe as described S rme, P., Kahl-Knutsson, B., Huflejt, M., Nilsson, U. J., and Leffler H. (2004) Fluorescence polarization as an analytical tool to evaluate galectin-ligand interactions. Anal. Biochem. 334: 36-47, (Sarme et al., 2004) and Monovalent interactions of Galectin-1 By Salomonsson, Emma; Larumbe, Amaia; Tejler, Johan; Tullberg, Erik; Rydberg, Hanna; Sundin, Anders; Khabut, Areej; Frejd, Torbjorn; Lobsanov, Yuri D.; Rini, James M.; et al, From Biochemistry (2010), 49(44), 9518-9532, (Salomonsson et al., 2010).

Galectin-3 = Galectin-3 (Homo sapiens, UniProt P17931); experiment: Evaluation of Kd Values
Galectin-3, sequence (P17931 whole entry): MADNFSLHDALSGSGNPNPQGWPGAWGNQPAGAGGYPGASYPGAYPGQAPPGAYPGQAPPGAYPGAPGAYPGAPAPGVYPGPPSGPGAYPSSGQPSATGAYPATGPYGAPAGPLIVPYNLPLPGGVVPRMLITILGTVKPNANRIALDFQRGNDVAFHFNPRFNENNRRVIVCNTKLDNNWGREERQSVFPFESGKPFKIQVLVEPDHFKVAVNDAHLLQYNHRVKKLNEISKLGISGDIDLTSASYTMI
Method: as §1

Galectin-1, sequence (P09382 whole entry): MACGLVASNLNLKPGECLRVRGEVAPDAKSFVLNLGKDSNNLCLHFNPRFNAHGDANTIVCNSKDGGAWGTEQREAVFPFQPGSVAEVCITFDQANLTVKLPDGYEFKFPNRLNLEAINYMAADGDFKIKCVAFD

SMILES | Kd (Galectin-1) [nM] | Kd (Galectin-3) [nM]
OCC1O[C@@H](S[C@@H]2O[C@H](CO)C(O)C(n3cc(-c4cc(F)c(F)c(F)c4)cn3)[C@H]2O)C(O)[C@@H](n2cc(-c3cc(F)c(F)c(F)c3)cn2)[C@H]1O (some centres undefined) [US20240059728, Example 5] | 890 | 6
OCC1O[C@@H](S[C@@H]2O[C@H](CO)C(O)C(n3cc(-c4cccc(F)c4)cn3)[C@H]2O)C(O)[C@@H](n2cc(-c3cccc(F)c3)cn2)[C@H]1O (some centres undefined) [US20240059728, Example 4] | 780 | < 10
